Source: BindingDB's records for doi:10.1016/j.bioorg.2013.06.006 (North-West University, Private Bag X6001, Potchefstroom …, 2013)

Target: Adenosine receptor A2a (Rattus norvegicus, UniProt P30543)
Sequence (P30543 whole entry): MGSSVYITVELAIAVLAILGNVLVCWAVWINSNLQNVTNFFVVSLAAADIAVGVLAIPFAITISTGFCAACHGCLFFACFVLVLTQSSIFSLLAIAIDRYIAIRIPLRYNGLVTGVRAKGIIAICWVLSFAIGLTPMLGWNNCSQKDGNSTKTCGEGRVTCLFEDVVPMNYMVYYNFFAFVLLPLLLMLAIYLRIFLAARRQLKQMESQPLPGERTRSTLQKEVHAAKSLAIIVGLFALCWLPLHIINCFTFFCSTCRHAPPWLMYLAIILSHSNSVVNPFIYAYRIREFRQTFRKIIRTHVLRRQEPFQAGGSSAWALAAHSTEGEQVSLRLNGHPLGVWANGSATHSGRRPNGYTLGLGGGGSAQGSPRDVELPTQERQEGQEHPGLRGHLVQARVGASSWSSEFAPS

Row | Ki [nM] | SMILES
1 | > 1000 | CCn1c(=O)c2c(nc(COc3ccccc3)n2C)n(CC)c1=O [8-Phenoxymethyl-1,3-diethyl-7-methylxanthine (8c)]
2 | 58.2 | CCn1c(/C=C/c2cccc(Br)c2)nc2c1c(=O)n(C)c(=O)n2C [(E)-8-(3-Bromostyryl)-1,3-dimethyl-7-ethylxanthine (5d)]
3 | > 1000 | CCn1c(=O)c2c(nc(COc3ccccc3)n2CC)n(CC)c1=O [8-Phenoxymethyl-1,3,7-triethylxanthine (8d)]
4 | 17.2 | CCn1c(=O)c2c(nc(/C=C/c3cccc(Br)c3)n2C)n(CC)c1=O [(E)-8-(3-Bromostyryl)-1,3-diethyl-7-methylxanthine (6d)]
5 | 93.8 | CCn1c(/C=C/c2cccc(C(F)(F)F)c2)nc2c1c(=O)n(C)c(=O)n2C [(E)-8-[3-(Trifluoromethyl)styryl]-1,3-dimethyl-7-ethylxanthine (5f)]
6 | 421 | CCn1c(/C=C/c2cccc(Cl)c2)nc2c1c(=O)n(C)c(=O)n2C [(E)-8-(3-Chlorostyryl)-1,3-dimethyl-7-ethylxanthine (5a)]
7 | 95.3 | CCn1c(/C=C/c2ccc(Cl)cc2)nc2c1c(=O)n(C)c(=O)n2C [(E)-8-(4-Chlorostyryl)-1,3-dimethyl-7-ethylxanthine (5b)]
8 | 169 | Cn1c(=O)c2c(nc(/C=C/c3ccc(Cl)cc3)n2C)n(C)c1=O
9 | > 1000 | CCn1c(=O)c2c(nc(CCCc3ccccc3)n2C)n(CC)c1=O [8-(3-Phenylpropyl)-1,3-diethyl-7-methylxanthine (9c)]
10 | > 1000 | CCn1c(=O)c2c(nc(/C=C/c3cccc(Cl)c3)n2CC)n(CC)c1=O [(E)-8-(3-Chlorostyryl)-1,3,7-triethylxanthine (7a)]
11 | 11.9 | CCn1c(=O)c2c(nc(/C=C/c3cccc(C(F)(F)F)c3)n2C)n(CC)c1=O [(E)-8-[3-(Trifluoromethyl)styryl]-1,3-diethyl-7-methylxanthine (6f)]
12 | > 1000 | CCn1c(=O)c2c(nc(/C=C/c3ccc(Cl)cc3)n2CC)n(CC)c1=O [(E)-8-(4-Chlorostyryl)-1,3,7-triethylxanthine (7b)]
13 | > 1000 | CCn1c(=O)c2c(nc(CCCc3ccccc3)n2CC)n(CC)c1=O [8-(3-Phenylpropyl)-1,3,7-triethylxanthine (9d)]
14 | 137 | Cn1c(=O)c2c(nc(COc3ccccc3)n2C)n(C)c1=O
15 | 28.9 | CCn1c(=O)c2c(nc(/C=C/c3ccc(Br)cc3)n2C)n(CC)c1=O [(E)-8-(4-Bromostyryl)-1,3-diethyl-7-methylxanthine (6e)]
16 | 32.9 | CCn1c(/C=C/c2ccc(Cl)c(Cl)c2)nc2c1c(=O)n(C)c(=O)n2C [(E)-8-(3,4-Dichlorostyryl)-1,3-dimethyl-7-ethylxanthine (5c)]
17 | > 1000 | CCn1c(COc2ccccc2)nc2c1c(=O)n(C)c(=O)n2C [8-Phenoxymethyl-1,3-dimethyl-7-ethylxantine (8b)]
18 | 161 | CCn1c(=O)c2c(nc(/C=C/c3cccc(Br)c3)n2CC)n(CC)c1=O [(E)-8-(3-Bromostyryl)-1,3,7-triethylxanthine (7d)]
19 | > 1000 | CCn1c(CCCc2ccccc2)nc2c1c(=O)n(C)c(=O)n2C [8-(3-Phenylpropyl)-1,3-dimethyl-7-ethylxanthine (9b)]
20 | > 1000 | Cn1c(=O)c2c(nc(CCCc3ccccc3)n2C)n(C)c1=O [8-(3-Phenylpropyl)-1,3,7-trimethylxanthine (9a)]
21 | 28.4 | Cn1c(=O)c2c(nc(/C=C/c3cccc(Br)c3)n2C)n(C)c1=O [(E)-8-(3-Bromostyryl)-1,3,7-trimethylxanthine (4c)]
22 | 127 | Cn1c(=O)c2c(nc(/C=C/c3ccc(Br)cc3)n2C)n(C)c1=O [(E)-8-(4-Bromostyryl)-1,3,7-trimethylxanthine (4d)]
23 | 24.3 | CCn1c(=O)c2c(nc(/C=C/c3cccc(Cl)c3)n2C)n(CC)c1=O [(E)-8-(3-Chlorostyryl)-1,3-diethyl-7-methylxanthine (6a)]
24 | 83 | CCn1c(=O)c2c(nc(/C=C/c3ccc(Br)cc3)n2CC)n(CC)c1=O [(E)-8-(4-Bromostyryl)-1,3,7-triethylxanthine (7e)]
25 | 44.8 | Cn1c(=O)c2c(nc(/C=C/c3ccc(Cl)c(Cl)c3)n2C)n(C)c1=O [(E)-8-(3,4-Dichlorostyryl)caffeine (4b)]
26 | 546 | CCn1c(/C=C/c2ccc(Br)cc2)nc2c1c(=O)n(C)c(=O)n2C [(E)-8-(4-Bromostyryl)-1,3-dimethyl-7-ethylxanthine (5e)]
27 | > 1000 | CCn1c(=O)c2c(nc(/C=C/c3cccc(C(F)(F)F)c3)n2CC)n(CC)c1=O [(E)-8-[3-(Trifluoromethyl)styryl]-1,3,7-triethylxanthine (7f)]
28 | 125 | Cn1c(=O)c2c(nc(/C=C/c3cccc(C(F)(F)F)c3)n2C)n(C)c1=O
29 | 428 | CCn1c(=O)c2c(nc(/C=C/c3ccc(Cl)c(Cl)c3)n2CC)n(CC)c1=O [(E)-8-(3,4-Dichlorostyryl)-1,3,7-triethylxanthine (7c)]
